Assay results: patent US4027039A (priority 1975, dated 1977)
Several values for one entry are separate records, joined by “and”; a condition that tells them apart may be missing. Equal entries are not always repeated. Where two headings read alike, the source gives them in different places.

Assays:
[1] = system: Influenza B Massachusetts virus; experiment: Influenza B Mass. in mice, oral; late read day 5 (Table 39), 7 (Table 40), 11 (Tables 61, 65); control fraction 16/20 (Table 61), else 100%; format: in vivo, mouse
Description: A portion of a commercially available sample of amantadine was recrystallized from isopropanol. The activity of the material against Influenza B Mass. was tested for the sample as obtained, the recrystallized portion, and the mother liquor obtained from recrystallizing the portion.

[2] = system: viral infections; experiment: Antiviral screening in animals, general statements; conditions: mouse, in vivo
[3] = system: Vaccinia IHD virus; format: in vivo, mouse
[4] = system: Herpes virus; experiment: Herpes virus in chicken eggs, single dose 24 hours pre-infection; format: in vivo, chick embryo
[5] = system: Influenza, Ann Arbor virus; experiment: Influenza Ann Arbor in mice, oral; schedule by table; late read day 5 (Tables 15, 25, 29, 30), 6 (18, 20, 22, 23, 26, 27, 28, 54), 7 (14, 19, 21, 24, 53, 56), 8 (16, 17, 51), 9 (11, 55); format: in vivo, mouse
[6] = system: Herpes virus
[7] = system: Influenza, Ann Arbor virus; experiment: Influenza Ann Arbor in mice, subcutaneous; late read day 9 (Table 11), 7 (Tables 12, 14), 5 (Table 13); format: in vivo, mouse

Molecule: NC12CC3CC(CC(C3)C1)C2 [Recrystallized amantadine, amantadine, reference compound]
- No. animals surviving after 11 days ([1]; total dose 60 ng): 4
- Survivors ([1]; total dose 60 ng): 2
- No. animals surviving after 11 days ([1]; total dose 600 ng): 3
- Survivors ([1]; total dose 600 ng): 3
- No. animals surviving after 11 days ([1]; total dose 6 μg): 5
- Survivors ([1]; total dose 6 μg): 5
- No. animals surviving after 11 days ([1]; total dose 60 μg): 5
- Survivors ([1]; total dose 60 μg): 2
- No. animals surviving after 11 days ([1]; total dose 600 μg): 3
- Survivors ([1]; total dose 600 μg): 2
- No. animals surviving after 11 days ([1]; total dose 6 mg): 6
- Survivors ([1]; total dose 6 mg): 4

Molecule: N=C(N)NN [aminoguanidine, bicarbonate]
- activity in words [2]: very pronounced protective effects
- Survivors ([1]; total dose 40 pg): 0
- Survivors ([1]; total dose 400 pg): 2
- Survivors ([1]; total dose 4 ng): 0
- Survivors ([1]; total dose 40 ng): 1
- Survivors ([1]; total dose 400 ng): 1
- Survivors ([1]; total dose 4 μg): 1

Molecule: NC(=S)NN=C1CCCCC1 [Cyclohexanone, thiosemicarBazone, Cyclohexanone, thiosemicarbazone]
- No. animals surviving after 5 days (Table 61: 11 days) ([1]; total dose .000005 μg (5 pg)): 7
- No. animals surviving when 100% (Table 61: 16/20) of controls are dead ([1]; total dose .000005 μg (5 pg)): 5
- Survivors ([1]; total dose .000005 μg (5 pg)): 5
- No. animals surviving after 5 days (Table 61: 11 days) ([1]; total dose .00005 μg (50 pg)): 4
- No. animals surviving when 100% (Table 61: 16/20) of controls are dead ([1]; total dose .00005 μg (50 pg)): 3
- Survivors ([1]; total dose .00005 μg (50 pg)): 2
- No. animals surviving after 5 days (Table 61: 11 days) ([1]; total dose .0005 μg (500 pg)): 2
- No. animals surviving when 100% (Table 61: 16/20) of controls are dead ([1]; total dose .0005 μg (500 pg)): 2
- Survivors ([1]; total dose .0005 μg (500 pg)): 2
- No. animals surviving after 5 days (Table 61: 11 days) ([1]; total dose .005 μg (5 ng)): 3
- No. animals surviving when 100% (Table 61: 16/20) of controls are dead ([1]; total dose .005 μg (5 ng)): 2
- Survivors ([1]; total dose .005 μg (5 ng)): 2
- No. animals surviving after 5 days (Table 61: 11 days) ([1]; total dose .05 μg (50 ng)): 7
- No. animals surviving when 100% (Table 61: 16/20) of controls are dead ([1]; total dose .05 μg (50 ng)): 7
- Survivors ([1]; total dose .05 μg (50 ng)): 5
- No. animals surviving after 5 days (Table 61: 11 days) ([1]; total dose .5 μg (500 ng)): 2
- No. animals surviving when 100% (Table 61: 16/20) of controls are dead ([1]; total dose .5 μg (500 ng)): 1
- Survivors ([1]; total dose .5 μg (500 ng)): 1

Molecule: NN [hydrazine]
- Statistical Significance of Tail Lesions ([3]; 10 ng, day 6): < .01
- Statistical Significance of Tail Lesions ([3]; 10 ng, day 7): < .05
- Statistical Significance of Tail Lesions ([3]; 10 ng, day 11): < .01
- Statistical Significance of Tail Lesions ([3]; 10 ng, day 12): < .01
- Statistical Significance of Tail Lesions ([3]; 10 ng, day 14): < .01
- Statistical Significance of Tail Lesions ([3]; 10 ng, day 17): < .01
- Statistical Significance of Tail Lesions ([3]; 10 ng, day 21): < .01
- Statistical Significance of Tail Lesions ([3]; 1 μg, day 10): < .01
- Statistical Significance of Tail Lesions ([3]; 1 μg, day 11): < .01
- Statistical Significance of Tail Lesions ([3]; 1 μg, day 12): < .01
- Statistical Significance of Tail Lesions ([3]; 1 μg, day 14): < .01
- Statistical Significance of Tail Lesions ([3]; 1 μg, day 17): < .01
- Statistical Significance of Tail Lesions ([3]; 1 μg, day 21): < .01
- Statistical Significance of Tail Lesions ([3]; 10 [μg], day 10): < .05
- Statistical Significance of Tail Lesions ([3]; 10 [μg], day 11): < .01
- Statistical Significance of Tail Lesions ([3]; 10 [μg], day 12): < .01
- Statistical Significance of Tail Lesions ([3]; 10 [μg], day 14): < .01
- Statistical Significance of Tail Lesions ([3]; 10 [μg], day 17): < .01
- Statistical Significance of Tail Lesions ([3]; 10 [μg], day 21): < .01
- Statistical Significance of Tail Lesions ([3]; 100 [ng], day 5): < .05
- Statistical Significance of Tail Lesions ([3]; 100 [ng], day 6): < .01
- Statistical Significance of Tail Lesions ([3]; 100 [ng], day 7): < .01
- Statistical Significance of Tail Lesions ([3]; 100 [ng], day 8): < .05
- Statistical Significance of Tail Lesions ([3]; 100 [ng], day 10): < .01
- Statistical Significance of Tail Lesions ([3]; 100 [ng], day 11): < .01
- Statistical Significance of Tail Lesions ([3]; 100 [ng], day 12): < .01
- Statistical Significance of Tail Lesions ([3]; 100 [ng], day 14): < .01
- Statistical Significance of Tail Lesions ([3]; 100 [ng], day 17): < .01
- Statistical Significance of Tail Lesions ([3]; 100 [ng], day 21): < .01
- Deaths on day 1 ([4]; 2 μg): 3
- Deaths on day 2 ([4]; 2 μg): 4
- Deaths on day 3 ([4]; 2 μg): 1
- Deaths on day 4 ([4]; 2 μg): 1
- No. dying 5-22 day ([4]; 2 μg): 0
- No. hatched ([4]; 2 μg): 1
- No. living longer than controls ([4]; 2 μg): 1
- Total deaths, 4th day ([4]; 2 μg): 9
- Deaths on day 1 ([4]; 20 μg): 3
- Deaths on day 3 ([4]; 20 μg): 4
- No. dying 5-22 day ([4]; 20 μg): 0
- No. hatched ([4]; 20 μg): 1
- No. living longer than controls ([4]; 20 μg): 1
- Total deaths, 4th day ([4]; 20 μg): 11
- Deaths on day 3 ([4]; .00005 μg): 5
- No. dying 5-22 day ([4]; .00005 μg): 0
- No. living longer than controls ([4]; .00005 μg): 1
- Total deaths, 4th day ([4]; .00005 μg): 9
- Deaths on day 2 ([4]; .0005 μg): 6
- Deaths on day 3 ([4]; .0005 μg): 4
- No. dying 5-22 day ([4]; .0005 μg): 0
- No. living longer than controls ([4]; .0005 μg): 0
- Total deaths, 4th day ([4]; .0005 μg): 12
- Deaths on day 2 ([4]; .005 μg): 7
- Deaths on day 3 ([4]; .005 μg): 4
- No. dying 5-22 day ([4]; .005 μg): 0
- No. living longer than controls ([4]; .005 μg): 0
- Total deaths, 4th day ([4]; .005 μg): 11
- Deaths on day 2 ([4]; .05 μg): 5
- Deaths on day 3 ([4]; .05 μg): 3
- No. dying 5-22 day ([4]; .05 μg): 0
- No. living longer than controls ([4]; .05 μg): 0
- Total deaths, 4th day ([4]; .05 μg): 10
- Deaths on day 3 ([4]; .5 μg): 5
- Deaths on day 4 ([4]; .5 μg): 1
- No. dying 5-22 day ([4]; .5 μg): 0
- No. living longer than controls ([4]; .5 μg): 0
- Total deaths, 4th day ([4]; .5 μg): 10
- Total no. living longer than controls ([4]; all doses): 3
- activity in words ([5]; oral): much less significant activity
- No. animals surviving after 6-9 days ([6]; total dose .0005 μg): 6 and 5
- No. animals surviving after 6-9 days ([6]; total dose .005 μg): 6
- No. animals surviving after 6-9 days ([6]; total dose .05 μg): 3 and 5
- No. animals surviving when 100% (or given fraction) of controls are dead ([6]; total dose .05 μg): 1
- No. animals surviving when 100% (or given fraction) of controls are dead ([6]; total dose .5 μg): 1

Molecule: N#CCC(=O)NN [Cyonacetic Acid Carbazide, Cyanoacetic Acid Hydrazide]
- No. animals surviving after 5 days (Table 61: 11 days) ([1]; total dose .000005 μg (5 pg)): 3
- No. animals surviving when 100% (Table 61: 16/20) of controls are dead ([1]; total dose .000005 μg (5 pg)): 3
- Survivors ([1]; total dose .000005 μg (5 pg)): 3
- No. animals surviving after 5 days (Table 61: 11 days) ([1]; total dose .00005 μg (50 pg)): 4
- No. animals surviving when 100% (Table 61: 16/20) of controls are dead ([1]; total dose .00005 μg (50 pg)): 4
- Survivors ([1]; total dose .00005 μg (50 pg)): 4
- No. animals surviving after 5 days (Table 61: 11 days) ([1]; total dose .0005 μg (500 pg)): 8
- No. animals surviving when 100% (Table 61: 16/20) of controls are dead ([1]; total dose .0005 μg (500 pg)): 5
- Survivors ([1]; total dose .0005 μg (500 pg)): 5
- No. animals surviving after 5 days (Table 61: 11 days) ([1]; total dose .005 μg (5 ng)): 2
- No. animals surviving when 100% (Table 61: 16/20) of controls are dead ([1]; total dose .005 μg (5 ng)): 2
- Survivors ([1]; total dose .005 μg (5 ng)): 1
- No. animals surviving after 5 days (Table 61: 11 days) ([1]; total dose .05 μg (50 ng)): 4
- No. animals surviving when 100% (Table 61: 16/20) of controls are dead ([1]; total dose .05 μg (50 ng)): 4
- Survivors ([1]; total dose .05 μg (50 ng)): 3
- No. animals surviving after 5 days (Table 61: 11 days) ([1]; total dose .5 μg (500 ng)): 5
- No. animals surviving when 100% (Table 61: 16/20) of controls are dead ([1]; total dose .5 μg (500 ng)): 4
- Survivors ([1]; total dose .5 μg (500 ng)): 4

Molecule: NNC(=S)NC12CC3CC(CC(C3)C1)C2
- No. animals surviving when 18/20 of controls are dead ([6]; total dose 4 pg): 1
- Survivors ([6]; total dose 4 pg): 1
- No. animals surviving when 18/20 of controls are dead ([6]; total dose 40 pg): 1
- Survivors ([6]; total dose 40 pg): 1
- No. animals surviving when 18/20 of controls are dead ([6]; total dose 400 pg): 3
- Survivors ([6]; total dose 400 pg): 3
- No. animals surviving when 18/20 of controls are dead ([6]; total dose 4 ng): 2
- Survivors ([6]; total dose 4 ng): 2
- No. animals surviving when 18/20 of controls are dead ([6]; total dose 40 ng): 2
- Survivors ([6]; total dose 40 ng): 2
- No. animals surviving when 18/20 of controls are dead ([6]; total dose 400 ng): 3
- Survivors ([6]; total dose 400 ng): 3

Molecule: N=C(N)NN [aminoguanidine]
- survival ([7]; subcutaneous, only at one dose level): 50%
- No. animals surviving after 7 days ([7]; total dose 3 μg): 6
- Survivors ([7]; total dose 3 μg): 2
- Survivors ([7]; total dose 30 μg): 2
- No. animals surviving after 7 days ([7]; total dose .0003 μg): 8
- Survivors ([7]; total dose .0003 μg): 5
- No. animals surviving after 7 days ([7]; total dose .003 μg): 8
- Survivors ([7]; total dose .003 μg): 0
- Survivors ([7]; total dose .03 μg): 1
- Survivors ([7]; total dose .3 μg): 1
- activity in words ([5]; oral): most active
- treated animals survived ([5]; oral, high dose): 50%
- No. animals surviving after 5-7 days ([5]; total dose 300 pg): 6
- Survivors ([5]; total dose 300 pg): 1
- Survivors ([5]; total dose 3 ng): 1
- Survivors ([5]; total dose 30 ng): 2
- Survivors ([5]; total dose 300 ng): 4
- No. animals surviving after 5-7 days ([5]; total dose 3 μg): 8
- Survivors ([5]; total dose 3 μg): 3
- No. animals surviving after 5-7 days ([5]; total dose 30 μg): 8

Molecule: NNc1nncc2ccccc12 [Hydralazine, hydralazine, reference compound]
- activity in words ([6]; mouse, in vivo): effective

Molecule: N-hydroxyphthalamide
- activity in words [2]: active

Molecule: O=C(C=NO)c1ccccc1 [phenylglyoxaloxime]
- activity in words [2]: active
